Data from patent US20240199605A1, “SMALL MOLECULAR INHIBITORS OF NF-kB INDUCING KINASE” (Janssen Pharmaceutica NV, priority 2019, published 2024).
Read-outs that look alike come from different tables or passages of the source.

Tests used:
[1] = molecular target: recombinant human NF-kappaB-inducing kinase (NIK/MAP3K14) (Homo sapiens (Human), UniProt Q99558); assay: Inhibition of auto-phosphorylation of recombinant human NIK/MAP3K14 (AlphaScreen); type: biochemical; settings: NIK auto-phosphorylation, 5 μM ATP, 1 nM NIK, 2 h at 25° C.; average of values
Sequence of recombinant human NF-kappaB-inducing kinase (NIK/MAP3K14) (Q99558 whole entry): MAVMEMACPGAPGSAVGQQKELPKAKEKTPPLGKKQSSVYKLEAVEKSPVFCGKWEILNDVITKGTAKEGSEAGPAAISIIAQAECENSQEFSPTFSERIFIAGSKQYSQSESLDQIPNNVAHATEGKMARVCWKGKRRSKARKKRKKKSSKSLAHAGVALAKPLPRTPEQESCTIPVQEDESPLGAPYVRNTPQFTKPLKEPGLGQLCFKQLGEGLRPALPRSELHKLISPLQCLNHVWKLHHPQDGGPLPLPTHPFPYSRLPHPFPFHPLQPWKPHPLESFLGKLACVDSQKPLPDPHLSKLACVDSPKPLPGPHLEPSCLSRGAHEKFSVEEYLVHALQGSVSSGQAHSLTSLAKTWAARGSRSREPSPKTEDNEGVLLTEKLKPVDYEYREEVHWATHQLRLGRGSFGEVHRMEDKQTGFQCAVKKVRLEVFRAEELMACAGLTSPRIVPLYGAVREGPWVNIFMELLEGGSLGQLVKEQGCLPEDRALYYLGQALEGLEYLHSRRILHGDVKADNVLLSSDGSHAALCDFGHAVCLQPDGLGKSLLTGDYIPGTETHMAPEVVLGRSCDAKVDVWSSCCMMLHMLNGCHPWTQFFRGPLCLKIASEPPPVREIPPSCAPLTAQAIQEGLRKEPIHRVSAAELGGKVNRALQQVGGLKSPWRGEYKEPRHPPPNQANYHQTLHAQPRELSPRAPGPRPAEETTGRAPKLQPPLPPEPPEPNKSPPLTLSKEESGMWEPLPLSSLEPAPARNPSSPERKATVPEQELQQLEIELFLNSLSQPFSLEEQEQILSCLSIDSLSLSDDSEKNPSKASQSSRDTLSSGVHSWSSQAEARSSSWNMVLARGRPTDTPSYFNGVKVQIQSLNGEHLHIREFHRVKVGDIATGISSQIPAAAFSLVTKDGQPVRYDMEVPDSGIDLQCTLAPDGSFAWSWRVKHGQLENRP
How it was run: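 AlphaScreen read-out (anti-phospho-IKK Ser176/180 antibody, Protein A acceptor and glutathione donor beads) of NIK auto-phosphorylation. Reaction: 1 nM enzyme, 5 μM ATP, Tris pH 7.5 buffer with Mg2+ and vanadate, 2 h at 25° C., final DMSO 0.7%. IC50 came from a sigmoidal curve fit.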

[2] = tested on: p-IKKα levels in L363 (NIK translocated multiple myeloma) cells; assay: Effect of compounds on p-IKKα levels in L363 cells (AlphaLISA SureFire Ultra); type: cell-based, human; settings: BAFF stimulated, MG132, 6 h, average of values, read-out: Assay 2 IC50
How it was run: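 Inhibition of p-IKKα (Ser176/180) read by AlphaLISA after 6 h, 37 °C compound exposure (11-point 1:3 series, 0.3% DMSO) of L363 cells pre-incubated overnight ± 250 ng/ml BAFF and plated ± BAFF ± 10 μM MG132. Normalised to BAFF/MG132/DMSO and unstimulated controls; IC50 by sigmoidal fitting, duplicates.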

| Structure (SMILES) | IC50 [1] | IC50 ([2]; Homo sapiens, L-363, 6 h) | IC50 [2] |
| --- | --- | --- | --- |
| Cc1cc(-c2cccc(C#C[C@]3(O)CCN(C)C3=O)c2)nc2c(C)ncnc12 [Example 250, (R)-3-((3-(4,8-Dimethylpyrido[3,2-d]pyrimidin-6-yl)phenyl)ethynyl)-3-hydroxy-1-methylpyrrolidin-2-one] | 7.9 nM | 130 nM | – |
| Cc1nc(N)c2nc(-c3cccc(C#C[C@@]4(O)C(=O)N(C)C[C@H]4C)c3)ccc2n1 (stereo in doubt) [Example 292, (3R,4R*)-3-((3-(4-Amino-2-methylpyrido[3,2-d]pyrimidin-6-yl)phenyl)ethynyl)-3-hydroxy-1,4-dimethylpyrrolidin-2-one] | 22 nM | 660 nM | – |
| CN1CC[C@@](O)(C#Cc2cccc(-c3ccc4ncnc(-c5ccccc5)c4n3)c2)C1=O [Example 257, (R)-3-Hydroxy-1-methyl-3-((3-(4-phenylpyrido[3,2-d]pyrimidin-6-yl)phenyl)ethynyl)pyrrolidin-2-one] | 44 nM | 2460 nM | – |
| CN1CC[C@@](O)(C#Cc2cccc(-c3ncc4c(CN5CCCC5)cnc(N)c4n3)c2)C1=O [Example 133, (R)-3-[2-[3-[8-Amino-5-(pyrrolidin-1-ylmethyl)pyrido[3,4-d]pyrimidin-2-yl]phenyl]ethynyl]-3-hydroxy-1-methyl-pyrrolidin-2-one] | 6.8 nM | 400 nM | – |
| Nc1nccc2cnc(-c3cccc(C#C[C@@]4(O)CCn5ccnc54)c3)nc12 [Example 64, (S)-7-[2-[3-(8-Aminopyrido[3,4-d]pyrimidin-2-yl)phenyl]ethynyl]-5,6-dihydropyrrolo[1,2-a]imidazol-7-ol] | 31 nM | 730 nM | – |
| COc1ccc(C#C[C@]2(O)CCN(C)C2=O)cc1-c1ccc2nc(C)nc(N)c2n1 [Example 161, (R)-3-((3-(4-Amino-2-methylpyrido[3,2-d]pyrimidin-6-yl)-4-methoxyphenyl)ethynyl)-3-hydroxy-1-methylpyrrolidin-2-one] | 7 nM | 78 nM | – |
| CN1CC[C@](C#Cc2cccc(-c3ccc4ncnc(N)c4n3)c2)(C(F)F)C1=O [Example 204, (R)-3-((3-(4-Aminopyrido[3,2-d]pyrimidin-6-yl)phenyl)ethynyl)-3-(difluoromethyl)-1-methylpyrrolidin-2-one] | 21 nM | 1060 nM | – |
| CN1CCC(O)(C#Cc2cccc(-c3ncc4ccnc(N5CCC5)c4n3)c2)C1=O (stereo in doubt) [Example 248, (S)-3-((3-(8-(Azetidin-1-yl)pyrido[3,4-d]pyrimidin-2-yl)phenyl)ethynyl)-3-hydroxy-1-methylpyrrolidin-2-one] | 3340 nM | – | > 5000 nM |
| Cc1ccc(C#C[C@@]2(O)CCN(C)C2=O)cc1-c1nc2c(N)ncnc2s1 [Example 11, (S)-3-((3-(7-Aminothiazolo[5,4-d]pyrimidin-2-yl)-4-methylphenyl)ethynyl)-3-hydroxy-1-methylpyrrolidin-2-one] | 83 nM | 2060 nM | – |
| CN1CC[C@@](O)(C#Cc2cccc(-c3ccc4nc(CO)nc(N)c4n3)c2)C1=O [Example 173, (R)-3-((3-(4-Amino-2-(hydroxymethyl)pyrido[3,2-d]pyrimidin-6-yl)phenyl)ethynyl)-3-hydroxy-1-methylpyrrolidin-2-one] | 12 nM | 180 nM | – |
| Nc1nccc2cnc(-c3cccc(C#CC4(O)CCN(CC(F)(F)F)C4=O)c3)nc12 (stereo in doubt) [Example 72, (R)-3-[2-[3-(8-Aminopyrido[3,4-d]pyrimidin-2-yl)phenyl]ethynyl]-3-hydroxy-1-(2,2,2-trifluoroethyl)pyrrolidin-2-one] | 8 nM | 910 nM | – |
| [2H]c1nc(N)c2nc(-c3cccc(C#C[C@]4(O)CCN(C)C4=O)c3)cc(CN)c2n1 [Example 282, (R)-3-((3-(4-Amino-8-(aminomethyl)pyrido[3,2-d]pyrimidin-6-yl-2-d)phenyl)ethynyl)-3-hydroxy-1-methylpyrrolidin-2-one] | 5.6 nM | 205 nM | – |
| Cc1nc(N)c2nc(-c3cccc(C#C[C@@]4(O)CCCN(C)C4=O)c3)ccc2n1 [Example 186, (S)-3-((3-(4-Amino-2-methylpyrido[3,2-d]pyrimidin-6-yl)phenyl)ethynyl)-3-hydroxy-1-methylpiperidin-2-one] | 710 nM | > 5000 nM | – |
| Cc1nc(N)c2nc(-c3cccc(C#C[C@](C)(O)c4ncccn4)c3)ccc2n1 [Example 198, (S)-4-[3-(4-Amino-2-methyl-pyrido[3,2-d]pyrimidin-6-yl)phenyl]-2-pyrimidin-2-yl-but-3-yn-2-ol] | 1310 nM | > 5000 nM | – |
| Cc1cc([C@](C)(O)C#Cc2ccc(C)c(-c3ccc4ccnc(N)c4c3)c2)no1 [Example 79, (R)-4-[3-(1-Amino-7-isoquinolyl)-4-methyl-phenyl]-2-(5-methylisoxazol-3-yl)but-3-yn-2-ol] | 590 nM | > 5000 nM | – |
| Cc1nc(N)c2nc(-c3cccc(C#C[C@@](C)(O)c4ccccn4)c3)ccc2n1 [Example 190, (R)-4-[3-(4-Amino-2-methyl-pyrido[3,2-d]pyrimidin-6-yl)phenyl]-2-(2-pyridyl)but-3-yn-2-ol] | 1830 nM | > 5000 nM | – |

Compounds with a lower IC50 [1], results first:

| IC50 [1] | IC50 ([2]; Homo sapiens, L-363, 6 h) | IC50 [2] | Structure (SMILES) |
| --- | --- | --- | --- |
| 0.8 nM | 27 nM | – | Cc1nc(-c2cccc(C#C[C@]3(O)CCc4cccnc43)c2)nc2c(N)nccc12 [Example 60, (R)-7-((3-(8-Amino-4-methylpyrido[3,4-d]pyrimidin-2-yl)phenyl)ethynyl)-6,7-dihydro-5H-cyclopenta[b]pyridin-7-ol] |
| 0.9 nM | 47 nM | – | CN1CC[C@@](O)(C#Cc2cccc(-c3nc4c(N)nccc4s3)c2)C1=O [Example 116, (R)-3-((3-(4-Aminothiazolo[4,5-c]pyridin-2-yl)phenyl)ethynyl)-3-hydroxy-1-methylpyrrolidin-2-one] |
| ≤ 0.5 nM | 18 nM | – | Cc1n[nH]c(C)c1-c1cnc(N)c2nc(-c3cccc(C#C[C@]4(O)CCN(C)C4=O)c3)ncc12 [Example 125, (R)-3-[2-[3-[8-Amino-5-(3,5-dimethyl-1H-pyrazol-4-yl)pyrido[3,4-d]pyrimidin-2-yl]phenyl]ethynyl]-3-hydroxy-1-methyl-pyrrolidin-2-one] |
| 2.3 nM | 590 nM | – | Cc1cc([C@](C)(O)C#Cc2cccc(-c3ccc4ccnc(N)c4n3)c2)no1 [Example 89, (R)-4-[3-(8-Amino-1,7-naphthyridin-2-yl)phenyl]-2-(5-methylisoxazol-3-yl)but-3-yn-2-ol] |
| ≤ 0.5 nM | 6.1 nM | – | Nc1ncnc2cnc(-c3cccc(C#C[C@@]4(O)CCc5cccnc54)c3)nc12 [Example 155, (S)-7-((3-(8-Aminopyrimido[5,4-d]pyrimidin-2-yl)phenyl)ethynyl)-6,7-dihydro-5H-cyclopenta[b]pyridin-7-ol] |
| 0.7 nM | 42 nM | – | CN1CC[C@@](O)(C#Cc2cccc(-c3ncc4c(-c5ccccc5)cnc(N)c4n3)c2)C1=O [Example 121, (R)-3-((3-(8-Amino-5-phenylpyrido[3,4-d]pyrimidin-2-yl)phenyl)ethynyl)-3-hydroxy-1-methylpyrrolidin-2-one] |
| ≤ 0.5 nM | 3.2 nM | – | [2H]C([2H])([2H])N1CC[C@@](O)(C#Cc2cccc(-c3nc(C)c4ccnc(N)c4n3)c2)C1=O [Example 83, (R)-3-((3-(8-Amino-4-methylpyrido[3,4-d]pyrimidin-2-yl)phenyl)ethynyl)-3-hydroxy-1-(methyl-da)pyrrolidin-2-one] |
| ≤ 0.5 nM | 12 nM | – | CN1CC[C@@](O)(C#Cc2cccc(-c3ncc4c(C(F)(F)F)cnc(N)c4n3)c2)C1=O [Example 99, (R)-3-[2-[3-[8-Amino-5-(trifluoromethyl)pyrido[3,4-d]pyrimidin-2-yl]phenyl]ethynyl]-3-hydroxy-1-methyl-pyrrolidin-2-one] |
| ≤ 0.5 nM | 42 nM | – | CN1CC[C@@](O)(C#Cc2cccc(-c3cc(C(F)(F)F)c4ncnc(N)c4c3)c2)C1=O [Example 115, (R)-3-((3-(4-Amino-8-(trifluoromethyl)quinazolin-6-yl)phenyl)ethynyl)-3-hydroxy-1-methylpyrrolidin-2-one] |
| 4.1 nM | 45 nM | – | [2H]c1nc(N)c2nc(-c3cc(C#C[C@]4(O)CCN(C)C4=O)ccc3OC(F)(F)F)ccc2n1 [Example 29, (R)-3-((3-(4-aminopyrido[3,2-d]pyrimidin-6-yl-2-d)-4-(trifluoromethoxy)phenyl)ethynyl)-3-hydroxy-1-methylpyrrolidin-2-one] |
| 1.8 nM | 71 nM | – | Cc1cc2ncnc(N)c2nc1-c1cccc(C#C[C@]2(O)CCN(C)C2=O)c1 [Example 189, (R)-3-((3-(4-Amino-7-methylpyrido[3,2-d]pyrimidin-6-yl)phenyl)ethynyl)-3-hydroxy-1-methylpyrrolidin-2-one] |
| ≤ 0.5 nM | 8.1 nM | – | Cc1ccc(C#C[C@]2(O)CCN(C)C2=O)cc1-c1nc2c(N)ncnc2s1 [Example 10, (R)-3-((3-(7-Aminothiazolo[5,4-d]pyrimidin-2-yl)-4-methylphenyl)ethynyl)-3-hydroxy-1-methylpyrrolidin-2-one] |
| 1.2 nM | 26 nM | – | CN1CC[C@@](O)(C#Cc2cccc(-c3nc4c(N)ncnc4s3)c2)C1=O [Example 101, (R)-3-((3-(7-Aminothiazolo[5,4-d]pyrimidin-2-yl)phenyl)ethynyl)-3-hydroxy-1-methylpyrrolidin-2-one] |
